The text below walks through data of US10098975B2, “Labeled pkg-1-alpha-binding compounds and their use in imaging and quantifying pain” (THE TRUSTEES OF COLUMBIA UNIVERSITY IN THE CITY OF NEW YORK, priority 2013, dated 2018).

Data set [1] in a line: Distribution to dorsal root ganglion and CNS after injection. It counts as in vivo.
The nature of data set [2]: Microsome preparations (metabolism). It counts as in vitro ADME.
For another data set, the target named is T1, PKG (Homo sapiens, UniProt Q13976).
T1 sequence (Q13976 1-671): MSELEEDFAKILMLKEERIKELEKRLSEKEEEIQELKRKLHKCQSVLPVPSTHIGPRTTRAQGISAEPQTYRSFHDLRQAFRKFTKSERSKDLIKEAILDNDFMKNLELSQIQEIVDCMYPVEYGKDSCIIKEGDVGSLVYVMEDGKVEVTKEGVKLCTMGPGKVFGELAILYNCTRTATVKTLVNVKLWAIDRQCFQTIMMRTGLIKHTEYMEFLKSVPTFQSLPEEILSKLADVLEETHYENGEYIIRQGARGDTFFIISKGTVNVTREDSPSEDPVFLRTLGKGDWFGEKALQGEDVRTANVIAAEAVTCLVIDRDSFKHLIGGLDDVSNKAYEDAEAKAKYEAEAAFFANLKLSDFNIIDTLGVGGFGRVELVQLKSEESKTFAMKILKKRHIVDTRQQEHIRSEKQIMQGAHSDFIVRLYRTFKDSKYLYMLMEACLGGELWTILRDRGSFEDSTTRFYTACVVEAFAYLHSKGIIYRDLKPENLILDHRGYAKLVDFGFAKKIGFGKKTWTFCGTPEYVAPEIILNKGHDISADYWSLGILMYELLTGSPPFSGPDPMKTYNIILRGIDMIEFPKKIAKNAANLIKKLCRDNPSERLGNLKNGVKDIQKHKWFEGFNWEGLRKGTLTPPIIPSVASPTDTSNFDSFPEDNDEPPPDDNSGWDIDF
The experiment in a line: IC50 of NOP46 for PKG. It counts as biochemical.

Another data set has as its system models of chronic pain. The experiment in a line: Rat models of chronic pain (mechanical allodynia, thermal hyperalgesia). The data set is classed as in vivo. Particulars: injected into rats, FIG. 6. The source says:
(§1) Evaluation of neuroma pain was made possible with the advent of a novel protocol in rats whereby the end of a transected tibial nerve is transposed and then anchored just beneath the skin of the ankle. This allows the allodynia from the neuroma to be evaluated by systematically applying pressure to the overlying skin and observing whether the rat raises the leg.

Data set [3] can be described thus: Tissue distribution studies. It counts as in vivo. To be noted: initial levels.
The target of the next data set is Protein Kinase A (PKA) (Homo sapiens, UniProt P17612). The experiment in a line: IC50 of NOP46 for Protein Kinase A. The data set is classed as biochemical.
Data set [4] can be described thus: Stability in blood in vitro. It counts as in vitro ADME.
A short description of data set [5]: Clearance from circulation after intravenous injection. The data set is classed as in vivo. To be noted: following intravenous injection.
The next data set has as its target T2, PKG1alpha(h) (Homo sapiens, UniProt Q13976).
T2 sequence (Q13976 1-671): T1 sequence (Q13976 1-671)
The experiment in a line: Kinase panel (287 kinases, optimal ATP): PKG1alpha(h). The data set is classed as biochemical. Particulars: assayed in 287 kinases at their optimal ATP concentrations. The method, then: Its kinase inhibiting activity was assayed in 287 kinases at their optimal ATP concentrations. Members of all the kinome families were represented.

The next data set deals with neuroma pain. The experiment in a line: Tibial neuroma transposition model of neuroma pain in rats. It counts as in vivo. To be noted: transected tibial nerve transposed beneath ankle skin.
Excerpt: as §1

`CCCOc1ccc(OC)c(F)c1C(=O)c1ccc(C(=O)N[C@@H]2CNC[C@H]2NC(=O)c2ccc3[nH]ncc3c2)cc1` [NOP46, N-((3R,4R)-4-(4-(2-fluoro-3-methoxy-6-propoxybenzoyl)benzamido)pyrrolidin-3-yl)-1H-indazole-5-carboxamide]: in data set [1], the “Entry into the central nervous system” value is “does not enter the central nervous system” and the “Time to reach the DRG” value is no more than 30 min. Also, in data set [1] (dorsal root ganglion), the “Stability within the ganglion” value is recorded as “at least 24 h”. Also, the Metabolic degradation pathway entry in data set [2] is “degraded by carbonyl reduction and depropylation”. Also, half-maximal inhibition at PKG (IC50) was put at 0.0075 µM. For the same molecule, the “Kinetic analysis: mode of inhibition” value at PKG (with respect to the ATP site) was “non-competitive inhibitor of the ATP site”. Also, in the data set on models of chronic pain, the Mechanical allodynia result was “alleviated mechanical allodynia” and the Thermal hyperalgesia entry was “alleviated”. Further, in data set [3], the “Tissue level in the liver” value is “high initial levels of NOP46 in the liver”. Further, at Protein Kinase A (PKA), the half-maximal inhibitory concentration (IC50) came to 2 µM. In [4], the Stability in blood result was “stable in blood in vitro”. Also, the “Clearance from the circulation” value in [5] was “rapidly cleared from the circulation”. Also, on PKG1alpha(h), the “Selectivity of kinase inhibition” value is on record as “selectively inhibits activated PKG1alpha”. Moreover, the Neuroma pain result in the data set with neuroma pain is “alleviates neuroma pain”.

The IC50 is the concentration needed to halve the response being measured. Read a high IC50 as weaker potency.
